Where “and” joins values, the source holds several entries; their conditions need not be identical. Identical values can stand only once. Like-named read-outs stand apart in the source and are kept apart here.
Assays:
[1] = target: full-length recombinant KDM5A (Homo sapiens, UniProt P29375); test: KDM5A enzyme kinetic assay; assay type: biochemical
[2] = target: full-length recombinant KDM5C (Homo sapiens, UniProt P41229); test: KDM5C enzyme kinetic assay; assay type: biochemical
[3] = target: full-length recombinant KDM5D (Homo sapiens, UniProt Q9BY66)
[4] = system: KDM5B; details: cited from earlier work
[5] = system: TET2; details: cited from earlier work
[6] = target: KDM5A^F68L (Homo sapiens, UniProt P29375, F68L); assay type: biochemical
[7] = target: KDM5A^R429I (Homo sapiens, UniProt P29375, R429I); assay type: biochemical
[8] = system: global 5hmC levels in TF-1 cells; test: Total 5hmC content by LC-MS; assay type: cell-based, human; details: 21 days in the presence of KDM5c70, day 0 of cytokine withdrawal
[9] = system: TF-1 cells; test: TF-1 cytokine-withdrawal assay; assay type: cell-based, human; details: parental TF-1 cells passaged 21 days in the presence of KDM5c70
[10] = system: global H3K4 trimethylation in TF-1 cells; test: Immunoblot analysis of global trimethyl-H3K4; assay type: cell-based, human; details: 50 nM KDM5c70, 21 days, vs DMSO-treated TF-1 cells
[11] = system: trimethyl-H3K4 at sites differentially marked in TF1-IDH1^R132H cells, TF-1 cells; test: Trimethyl-H3K4 ChIP-seq; assay type: cell-based, human; details: KDM5c70-treated TF-1 cells vs DMSO
[12] = system: IHA cells; test: Soft agar colony-forming assay; assay type: cell-based, human; details: 50 nM KDM5c70, IHA cells passaged 7 times in the presence of KDM5c70
[13] = system: TF1-IDH1^R132H cells; test: Proliferation under cytokine-rich conditions; assay type: cell-based, human; details: doses up to 100 nM, cytokine-rich media
[14] = system: control TF-1 cells; test: Proliferation under cytokine-rich conditions; assay type: cell-based, human; details: doses up to 100 nM, cytokine-rich media
[15] = system: TF1-IDH1^R132H cells; test: Cytokine-withdrawal assay of mutant IDH-transformed TF-1 cells; assay type: cell-based, human
[16] = system: TF1-shTET2 cells; test: Cytokine-withdrawal assay of TET2-knockdown TF-1 cells; assay type: cell-based, human; details: pre-treatment for two weeks prior to cytokine withdrawal
[17] = read-out: 2OG Km, mean ± SD of 3 to 7 assays, 50 mM Tris-HCl pH 7.5, 37 °C
[18] = read-out: (R)-2HG IC50, fourfold 2OG concentration relative to 2OG Km
[19] = read-out: (S)-2HG IC50, fourfold 2OG concentration relative to 2OG Km

full-length recombinant KDM5A, sequence (P29375 whole entry): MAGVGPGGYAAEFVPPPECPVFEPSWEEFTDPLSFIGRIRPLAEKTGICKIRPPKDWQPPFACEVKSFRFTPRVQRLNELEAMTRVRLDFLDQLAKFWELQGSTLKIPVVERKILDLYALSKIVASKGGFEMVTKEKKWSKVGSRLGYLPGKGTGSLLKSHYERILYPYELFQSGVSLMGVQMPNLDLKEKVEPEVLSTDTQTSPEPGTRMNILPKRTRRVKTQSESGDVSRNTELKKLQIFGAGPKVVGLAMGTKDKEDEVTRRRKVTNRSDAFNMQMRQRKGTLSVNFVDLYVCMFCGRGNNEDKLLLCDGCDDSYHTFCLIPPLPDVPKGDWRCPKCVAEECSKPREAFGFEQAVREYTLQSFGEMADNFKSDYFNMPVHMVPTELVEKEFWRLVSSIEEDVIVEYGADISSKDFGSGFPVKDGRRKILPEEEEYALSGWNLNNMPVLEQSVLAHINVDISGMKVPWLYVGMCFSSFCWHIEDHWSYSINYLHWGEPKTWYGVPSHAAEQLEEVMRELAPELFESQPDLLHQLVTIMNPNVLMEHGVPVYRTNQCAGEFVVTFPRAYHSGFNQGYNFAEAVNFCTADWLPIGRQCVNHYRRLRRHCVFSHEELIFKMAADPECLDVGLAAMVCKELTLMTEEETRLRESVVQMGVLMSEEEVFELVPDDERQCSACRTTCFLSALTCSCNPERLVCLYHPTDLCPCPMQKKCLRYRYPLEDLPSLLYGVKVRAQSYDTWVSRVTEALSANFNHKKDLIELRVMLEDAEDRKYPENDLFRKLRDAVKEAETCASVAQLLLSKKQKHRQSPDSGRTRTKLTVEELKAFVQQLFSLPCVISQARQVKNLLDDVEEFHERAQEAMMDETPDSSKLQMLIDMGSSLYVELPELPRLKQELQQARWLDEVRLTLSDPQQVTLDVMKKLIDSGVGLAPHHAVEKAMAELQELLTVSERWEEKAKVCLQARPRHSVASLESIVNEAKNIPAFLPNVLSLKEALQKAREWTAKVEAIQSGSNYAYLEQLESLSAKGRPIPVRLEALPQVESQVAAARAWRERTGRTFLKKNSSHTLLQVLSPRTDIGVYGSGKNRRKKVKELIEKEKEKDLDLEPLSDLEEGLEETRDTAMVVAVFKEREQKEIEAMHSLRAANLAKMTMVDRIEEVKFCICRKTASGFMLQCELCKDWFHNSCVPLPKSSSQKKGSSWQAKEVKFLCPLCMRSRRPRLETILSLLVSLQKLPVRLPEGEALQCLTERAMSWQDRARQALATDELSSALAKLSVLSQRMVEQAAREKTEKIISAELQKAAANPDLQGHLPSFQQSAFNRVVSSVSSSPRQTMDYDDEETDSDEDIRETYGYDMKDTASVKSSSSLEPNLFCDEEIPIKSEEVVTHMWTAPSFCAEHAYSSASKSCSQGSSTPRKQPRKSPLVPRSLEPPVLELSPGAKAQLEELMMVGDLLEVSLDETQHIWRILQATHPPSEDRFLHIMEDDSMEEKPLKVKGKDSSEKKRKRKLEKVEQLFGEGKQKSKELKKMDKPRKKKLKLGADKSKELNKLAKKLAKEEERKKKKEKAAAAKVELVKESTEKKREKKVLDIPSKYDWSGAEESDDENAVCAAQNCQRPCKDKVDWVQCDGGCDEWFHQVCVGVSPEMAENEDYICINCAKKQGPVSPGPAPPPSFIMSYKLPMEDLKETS
full-length recombinant KDM5D, sequence (Q9BY66 whole entry): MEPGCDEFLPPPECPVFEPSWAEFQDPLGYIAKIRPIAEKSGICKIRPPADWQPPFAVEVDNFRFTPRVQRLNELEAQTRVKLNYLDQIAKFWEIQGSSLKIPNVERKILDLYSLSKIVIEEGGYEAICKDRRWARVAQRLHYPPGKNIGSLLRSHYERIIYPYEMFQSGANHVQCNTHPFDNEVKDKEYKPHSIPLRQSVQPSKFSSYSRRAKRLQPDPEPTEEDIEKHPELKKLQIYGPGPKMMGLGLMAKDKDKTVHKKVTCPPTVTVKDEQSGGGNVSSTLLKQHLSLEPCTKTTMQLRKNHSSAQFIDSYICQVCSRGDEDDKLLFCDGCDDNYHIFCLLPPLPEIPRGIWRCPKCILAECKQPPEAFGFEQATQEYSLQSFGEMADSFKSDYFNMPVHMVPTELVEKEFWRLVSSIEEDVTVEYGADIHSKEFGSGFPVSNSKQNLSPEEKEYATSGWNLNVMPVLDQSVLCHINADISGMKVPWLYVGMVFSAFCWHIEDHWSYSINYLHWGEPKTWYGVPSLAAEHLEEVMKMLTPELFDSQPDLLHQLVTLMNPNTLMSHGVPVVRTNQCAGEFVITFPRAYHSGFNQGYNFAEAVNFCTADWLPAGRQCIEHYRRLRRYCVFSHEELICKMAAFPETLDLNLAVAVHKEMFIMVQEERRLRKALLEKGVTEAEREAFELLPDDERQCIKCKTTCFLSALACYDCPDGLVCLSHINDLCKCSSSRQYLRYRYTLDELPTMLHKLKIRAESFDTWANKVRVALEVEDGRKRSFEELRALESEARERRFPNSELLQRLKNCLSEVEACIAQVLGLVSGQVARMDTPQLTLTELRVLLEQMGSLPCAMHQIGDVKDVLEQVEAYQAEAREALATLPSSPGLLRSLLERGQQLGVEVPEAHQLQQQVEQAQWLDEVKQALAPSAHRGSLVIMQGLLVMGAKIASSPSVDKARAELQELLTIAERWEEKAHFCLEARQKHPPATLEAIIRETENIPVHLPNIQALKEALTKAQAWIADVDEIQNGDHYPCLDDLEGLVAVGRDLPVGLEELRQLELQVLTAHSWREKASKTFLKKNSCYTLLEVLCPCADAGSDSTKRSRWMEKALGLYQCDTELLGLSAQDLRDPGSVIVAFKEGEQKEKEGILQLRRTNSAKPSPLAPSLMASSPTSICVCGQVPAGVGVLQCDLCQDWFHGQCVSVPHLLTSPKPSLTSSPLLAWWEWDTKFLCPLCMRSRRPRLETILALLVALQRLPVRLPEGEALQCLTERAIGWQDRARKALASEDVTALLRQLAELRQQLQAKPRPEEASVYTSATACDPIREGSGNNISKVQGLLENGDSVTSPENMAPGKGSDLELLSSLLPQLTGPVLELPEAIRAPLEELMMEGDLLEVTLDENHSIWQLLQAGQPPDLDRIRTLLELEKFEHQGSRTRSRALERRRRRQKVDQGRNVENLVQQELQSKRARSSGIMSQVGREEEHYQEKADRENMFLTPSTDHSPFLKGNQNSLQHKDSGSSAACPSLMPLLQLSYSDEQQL
full-length recombinant KDM5C, sequence (P41229 whole entry): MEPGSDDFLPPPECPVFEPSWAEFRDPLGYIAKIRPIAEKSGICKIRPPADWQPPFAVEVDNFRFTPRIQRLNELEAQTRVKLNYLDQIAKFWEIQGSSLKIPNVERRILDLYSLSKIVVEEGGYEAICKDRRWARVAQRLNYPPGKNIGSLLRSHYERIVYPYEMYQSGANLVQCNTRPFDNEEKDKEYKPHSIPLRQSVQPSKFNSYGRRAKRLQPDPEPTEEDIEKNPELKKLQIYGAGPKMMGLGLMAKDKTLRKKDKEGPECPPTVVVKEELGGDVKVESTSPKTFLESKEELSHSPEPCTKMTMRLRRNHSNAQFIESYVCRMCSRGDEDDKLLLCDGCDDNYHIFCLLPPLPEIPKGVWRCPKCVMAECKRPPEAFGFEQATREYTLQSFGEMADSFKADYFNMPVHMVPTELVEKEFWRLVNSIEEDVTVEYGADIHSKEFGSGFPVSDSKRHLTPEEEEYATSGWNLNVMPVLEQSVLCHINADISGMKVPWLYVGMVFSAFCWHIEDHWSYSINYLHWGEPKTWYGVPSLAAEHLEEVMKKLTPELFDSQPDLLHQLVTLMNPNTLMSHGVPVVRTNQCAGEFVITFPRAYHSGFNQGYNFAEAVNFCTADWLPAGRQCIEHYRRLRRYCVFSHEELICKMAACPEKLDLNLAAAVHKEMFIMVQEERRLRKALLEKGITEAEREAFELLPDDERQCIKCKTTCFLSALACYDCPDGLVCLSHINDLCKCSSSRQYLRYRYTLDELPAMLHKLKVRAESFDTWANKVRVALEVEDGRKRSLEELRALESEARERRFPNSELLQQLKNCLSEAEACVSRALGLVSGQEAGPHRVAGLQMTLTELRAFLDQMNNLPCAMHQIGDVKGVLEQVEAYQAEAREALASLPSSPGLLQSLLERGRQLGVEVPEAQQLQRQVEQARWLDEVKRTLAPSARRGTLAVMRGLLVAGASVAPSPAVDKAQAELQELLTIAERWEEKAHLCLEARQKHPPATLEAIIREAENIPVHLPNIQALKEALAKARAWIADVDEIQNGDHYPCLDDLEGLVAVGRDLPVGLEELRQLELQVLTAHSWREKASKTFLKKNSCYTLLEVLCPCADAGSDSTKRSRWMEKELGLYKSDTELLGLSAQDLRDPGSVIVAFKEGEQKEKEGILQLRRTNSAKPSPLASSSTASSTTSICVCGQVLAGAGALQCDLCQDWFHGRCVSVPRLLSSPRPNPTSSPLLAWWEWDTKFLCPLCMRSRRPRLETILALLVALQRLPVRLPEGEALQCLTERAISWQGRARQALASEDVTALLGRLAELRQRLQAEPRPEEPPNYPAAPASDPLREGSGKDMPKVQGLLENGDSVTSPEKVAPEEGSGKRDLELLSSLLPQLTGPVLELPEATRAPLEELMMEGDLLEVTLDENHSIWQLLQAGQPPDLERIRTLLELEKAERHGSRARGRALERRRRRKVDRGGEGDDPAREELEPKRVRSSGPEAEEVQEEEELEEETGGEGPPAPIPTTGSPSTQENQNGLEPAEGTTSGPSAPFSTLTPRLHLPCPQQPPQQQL
KDM5A^R429I, sequence (P29375 whole entry R429I): as the sequence (P29375 whole entry) above, with R429I counted along it
KDM5A^F68L, sequence (P29375 whole entry F68L): as the sequence (P29375 whole entry) above, with F68L counted along it

## O=C(O)CCC(=O)C(=O)O [2OG, 2-oxoglutarate]
[1]; read-out: 2OG Km, mean ± SD of 3 to 7 assays, 50 mM MES pH 6.5, 37 °C
  Km: 4.5 ± 0.3 µM
[2]; [17]
  Km: 2.7 ± 0.4 µM
[3]; [17]
  Km: 4.3 ± 1.5 µM
[4]; read-out: 2OG Km
  Km: 10 ± 2 µM
[5]; read-out: 2OG Km
  Km: 55 ± 20 µM

## O=C(O)CC[C@@H](O)C(=O)O [(R)-2HG, (R)-2-hydroxyglutarate]
[1]; [18]
  IC50: 930 ± 200 µM
[2]; [18]
  IC50: 670 ± 100 µM
[6]
  sensitivity to inhibition by (R)-2HG compared with wild-type KDM5A: similarly sensitive to inhibition by (R)-2HG
[7]
  sensitivity to inhibition by (R)-2HG compared with wild-type KDM5A: similarly sensitive to inhibition by (R)-2HG
[3]; [18]
  IC50: 800 ± 190 µM
[4]; read-out: (R)-2HG IC50
  IC50: […]
[5]; read-out: (R)-2HG IC50
  IC50: ~5000 µM and 5000 µM

## O=C(O)CC[C@H](O)C(=O)O [(S)-2HG]
[1]
  inhibition of KDM5A (in words): potently inhibited
[1]; [19]
  IC50: 150 ± 100 µM
[2]
  inhibition of KDM5C (in words): potently inhibited
[2]; [19]
  IC50: 200 ± 10 µM
[3]
  inhibition of KDM5D (in words): potently inhibited
[3]; [19]
  IC50: 310 ± 30 µM
[5]; read-out: (S)-2HG IC50
  IC50: 1600 µM

## CCOC(=O)c1ccnc(CNCC(=O)N(CC)CCN(C)C)c1 [KDM5c70]
[8]
  effect on global 5hmC levels: neither KDM5A/C/D triple knockout nor treatment with KDM5c70 had a significant effect
[9]
  induction of TF-1 cytokine independence: sufficient to induce TF-1 cytokine independence
[10]
  effect on global trimethyl-H3K4 levels (western blot): increased global levels of trimethyl-H3K4
[11]
  trimethyl-H3K4 ChIP-seq signal at sites enriched in TF1-IDH1^R132H cells: trimethyl-H3K4-rich regions were enriched
[12]
  soft agar colony formation: sufficient to induce soft agar colony formation

## CC(C)N(C(=O)c1cc(F)ccc1Oc1cncnc1N1CC2(CCN(CC3CCC(NS(C)(=O)=O)CC3)CC2)C1)C(C)C (centres unmarked) [VTP50469]
[13]
  effect on cytokine-dependent proliferation: no effect
[14]
  effect on cytokine-dependent proliferation: no effect
[15]; pre-treatment for two weeks prior to cytokine withdrawal
  effect on cytokine independence: did inhibit TF1-IDH1^R132H cytokine independence in a dose-dependent manner
[15]; treatment started on day 0 of cytokine withdrawal
  effect on cytokine independence: no effect
[16]
  effect on cytokine independent proliferation: inhibited the cytokine independent proliferation of TF1-shTET2 cells to a similar extent as TF1-IDH1^R132H cells

From publication PMC10238656 (Cancer discovery, 2023)
